From the supplement of paper PMC11061612

Assays:
Assay in all cases: Bliss excess, mean over the matrix (fraction); higher = more synergy
[1] = tested on: MDA-MB-231 (Breast Carcinoma)
How it was run: (§1)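 Cell lines grown in DMEM/F12 or RPMI with 10% FBS were plated in 1536-well plates and held 24 hours at 37°C, 5% CO2 before 72 hours of exposure to two-drug dose matrices, with DMSO typically at 0.2%. CellTiter-Glo 2.0 luminescence gave viability, which was converted to inhibition. Vehicle wells were set to 0 and blank wells to 1. Combination Emax is the second-highest inhibition in the matrix, and Bliss excess is the observed combination effect minus the expected EA + EB − EA·EB, where EA and EB are the single-agent effects.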

[2] = tested on: NALM-6 (B-Lymphoblastic Leukemia)
How it was run: as §1

[3] = tested on: MDA-MB-157 (Breast Carcinoma)
How it was run: as §1

[4] = tested on: COR-L95 (Small Cell Lung Carcinoma)
How it was run: as §1

[5] = tested on: NCI-H211 (Small Cell Lung Carcinoma)
How it was run: as §1

[6] = tested on: G-292-Clone-A141B1 (Osteosarcoma)
How it was run: as §1

[7] = tested on: SW1990 (Pancreatic Carcinoma)
How it was run: as §1

[8] = tested on: SW1088 (Low Grade Glioma)
How it was run: as §1

[9] = tested on: SK-N-FI (Neuroblastoma)
How it was run: as §1

[10] = tested on: SW1783 (Low Grade Glioma)
How it was run: as §1

[11] = tested on: LS-513 (Colorectal Carcinoma)
How it was run: as §1

[12] = tested on: DB (B-Cell Non-Hodgkin's Lymphoma)
How it was run: as §1

[13] = tested on: ES7 (Ewing's Sarcoma)
How it was run: as §1

[14] = tested on: KATOIII (Gastric Carcinoma)
How it was run: as §1

[15] = tested on: OCI-AML2 (Acute Myeloid Leukemia)
How it was run: as §1

[16] = tested on: NCI-H2595 (Mesothelioma)
How it was run: as §1

[17] = tested on: DOV13 (Ovarian Carcinoma)
How it was run: as §1

[18] = tested on: DSH1 (Bladder Carcinoma)
How it was run: as §1

[19] = tested on: HT-29 (Colorectal Carcinoma)
How it was run: as §1

[20] = tested on: MFH-ino (Other Solid Carcinomas)
How it was run: as §1

Row | SMILES | Bliss excess [1] | Bliss excess [2] | Bliss excess [3] | Bliss excess [4] | Bliss excess [5] | Bliss excess [6] | Bliss excess [7] | Bliss excess [8] | Bliss excess [9] | Bliss excess [10] | Bliss excess [11] | Bliss excess [12] | Bliss excess [13] | Bliss excess [14] | Bliss excess [15] | Bliss excess [16] | Bliss excess [17] | Bliss excess [18] | Bliss excess [19] | Bliss excess [20]
1 | CS(=O)(=O)CCNCc1ccc(-c2ccc3ncnc(Nc4ccc(OCc5cccc(F)c5)c(Cl)c4)c3c2)o1 [Lapatinib] + Cn1cnc2c(F)c(Nc3ccc(Br)cc3Cl)c(C(=O)NOCCO)cc21 [Selumetinib] (first compound max 10 µM, 7x7, partner max 10 µM) | -0.0236 | 0.021 | -0.0598 | -0.0382 | 0.0084 | -0.0566 | 0.0373 | -0.0524 | 0.0179 | -0.0252 | -0.054 | 0.0388 | -0.0355 | -0.0223 | -0.0296 | -0.0548 | -0.0166 | -0.067 | 0.0362 | -0.0468
2 | O=C(c1cc(Cc2n[nH]c(=O)c3ccccc23)ccc1F)N1CCN(C(=O)C2CC2)CC1 [Olaparib] + CN(CC[C@H](CSC1=CC=CC=C1)NC2=C(C=C(C=C2)S(=O)(=O)NC(=O)C3=CC=C(C=C3)N4CCC(CC4)[C@H](C5=CC=CC=C5C6=CC=C(C=C6)Cl)O)S(=O)(=O)C(F)(F)F)CCO [AZD4320] (first compound max 10 µM, 7x7, partner max 1 µM) | -0.071 | 0.0211 | -0.0094 | 0.0593 | 0.0233 | -0.0275 | -0.0818 | -0.0518 | -0.0374 | -0.0391 | -0.0326 | -0.0863 | 0.0156 | -0.0047 | 0.041 | -0.045 | 0.0543 | 0.0308 | -0.0278 | -0.0594
3 | Cc1cc2ncnn2cc1Nc1ncc2c(n1)n(C1CCOCC1)c(=O)n2C [AZD7648] + COc1cc([C@@H]2c3cc4c(cc3[C@@H](O[C@@H]3O[C@@H]5CO[C@@H](C)O[C@H]5[C@H](O)[C@H]3O)[C@H]3COC(=O)[C@H]23)OCO4)cc(OC)c1O [Etoposide] (first compound max 10 µM, 7x7, partner max 10 µM) | 0.0776 | 0.0869 | 0.0451 | 0.0315 | 0.0313 | 0.0701 | 0.0302 | 0.032 | -0.0258 | 0.0614 | 0.111 | 0.0998 | 0.052 | -0.0224 | 0.175 | 0.0252 | 0.0276 | 0.0627 | 0.0162 | 0.0513
4 | CS(=O)(=O)CCNCc1ccc(-c2ccc3ncnc(Nc4ccc(OCc5cccc(F)c5)c(Cl)c4)c3c2)o1 [Lapatinib] + NC1(c2ccc(-c3nc4ccn5c(=O)[nH]nc5c4cc3-c3ccccc3)cc2)CCC1 [MK-2206] (first compound max 10 µM, 7x7, partner max 10 µM) | 0.0364 | -0.0044 | -0.0057 | 0.0048 | 0.058 | -0.0004 | -0.003 | 0.0163 | -0.0027 | -0.0201 | -0.0396 | -0.0017 | 0.036 | 0.0226 | 0.0419 | -0.0559 | 0.0362 | 0.0917 | 0.0084 | -0.102
5 | Cc1c2c(nn1C)CSCc1cc(n(C)n1)CSc1cc(c3ccccc3c1)OCCCc1c(C(=O)O)n(C)c3c-2c(Cl)ccc13 [AZD5991] + CC(=O)O[C@H]1C(=O)[C@@]2(C)[C@H]([C@H](OC(=O)c3ccccc3)[C@]3(O)C[C@H](OC(=O)[C@H](O)[C@@H](NC(=O)c4ccccc4)c4ccccc4)C(C)=C1C3(C)C)[C@]1(OC(C)=O)CO[C@@H]1C[C@@H]2O [Paclitaxel] (first compound max 1 µM, 7x7, partner max 3 µM) | 0.0049 | -0.0432 | 0.078 | -0.0187 | 0.0016 | 0.0565 | -0.0231 | -0.0192 | -0.0177 | -0.0242 | -0.0216 | 0.0342 | -0.06 | -0.0298 | -0.0046 | -0.0504 | -0.0492 | 0.0523 | -0.1 | -0.0321
6 | C[C@@H](Oc1cc(-c2cnn(C3CCNCC3)c2)cnc1N)c1c(Cl)ccc(F)c1Cl [Crizotinib] + CC1=C(C(=CC=C1)Cl)NC(=O)C2=CN=C(S2)NC3=CC(=NC(=N3)C)N4CCN(CC4)CCO [Dasatinib] (first compound max 10 µM, 7x7, partner max 2 µM) | 0.0116 | 0.022 | -0.0052 | -0.0662 | -0.0089 | 0.028 | -0.0312 | 0.016 | -0.0425 | 0.103 | -0.0485 | -0.0805 | 0.0273 | -0.0263 | -0.0271 | 0.0519 | 0.067 | -0.0536 | -0.0002 | 0.0577
7 | C[C@@H]1COCCN1c1cc(C2([S@](C)(=N)=O)CC2)nc(-c2ccnc3[nH]ccc23)n1 [AZD6738] + Nc1ccn([C@@H]2O[C@H](CO)[C@@H](O)C2(F)F)c(=O)n1 [Gemcitabine] (first compound max 10 µM, 7x7, partner max 0.3 µM) | 0.0736 | -0.0252 | 0.0295 | -0.0359 | 0.0304 | 0.0421 | -0.0028 | -0.0399 | 0.0769 | -0.0109 | -0.0336 | -0.0172 | 0.0367 | 0.0057 | 0.0351 | 0.0326 | 0.0205 | 0.0108 | 0.0492 | -0.0585
